Measured values taken from patent publication US8574831B2, “Mutational profiles in HIV-1 reverse transcriptase correlated with phenotypic drug resistance” (Virco N.V., priority 2000, dated 2013).

Test system: HIV with mutations in the HIV protease sequence
Test: Phenotypic fold resistance to protease inhibitors, protease mutations 84A/84L/84C/54M/54L/54V in a background (Examples 8-13)
Type: cell-based, HIV-1
Method in brief: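 Fold-resistance equals chimeric-virus IC50 divided by IC50 of a parallel wild-type reference HIV-1 strain. Chimeras come from PCR-amplified PR/RT genes recombined into PR/RT-deleted HXB2 proviral DNA inside CD4+ T cells, then cultured with graded drug concentrations.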

For `CC(C)(C)NC(=O)[C@@H]1CN(Cc2cccnc2)CCN1C[C@@H](O)C[C@@H](Cc1ccccc1)C(=O)N[C@H]1c2ccccc2C[C@H]1O` [Indinavir, indinavir], which “mean fold increase in resistance” value (Table 9 #1, protease genotype WT) is on record?
Its value is 0.9 fold.

And the “mean fold increase in resistance” value (Table 9 #2, protease genotype 10I)?
Its value is 0.7 fold.

What about the “mean fold increase in resistance” value (Table 9 #3, protease genotype 46I) of the same compound?
Its value is 0.6 fold.

And the “mean fold increase in resistance” value (Table 9 #4, protease genotype 46I + 84V)?
The value was 2.6 fold.

What about the “mean fold increase in resistance” value (Table 9 #5, protease genotype 46I + 84A) of the same compound?
The value was 26.8 fold.

What about the “mean fold increase in resistance” value (Table 9 #6, protease genotype 10I + 46I) of the same compound?
Its value is 2.9 fold.

And the “mean fold increase in resistance” value (Table 9 #7, protease genotype 10I + 46I + 84V)?
Its value is 2.4 fold.

What about the “mean fold increase in resistance” value (Table 9 #8, protease genotype 10I + 46I + 84A) of the same compound?
Its value is 33.4 fold.

And the “mean fold increase in resistance” value (Table 9 #9, protease genotype 10L/I + 46I + 84A)?
Its value is 44.5 fold.

What about the “mean fold increase in resistance” value (Table 9 #10, protease genotype 10I + 46I + 84A) of the same compound?
Its value is 26 fold.

And the “mean fold increase in resistance” value (Table 9 #11, protease genotype 46I + 71V)?
The value was 3.7 fold.

And the “mean fold increase in resistance” value (Table 9 #12, protease genotype 46I + 71V + 84V/I)?
Its value is 3.1 fold.

And the “mean fold increase in resistance” value (Table 9 #13, protease genotype 46I + 71V + 84A)?
The value was 56.5 fold.

What about the “mean fold increase in resistance” value (Table 9 #14, protease genotype 10F + 46I + 71V) of the same compound?
Its value is 22.2 fold.

What about the “mean fold increase in resistance” value (Table 9 #15, protease genotype 10I + 46I + 71V + 84V) of the same compound?
The value was 50.5 fold.

What about the “mean fold increase in resistance” value (Table 9 #16, protease genotype 10I + 46I + 71V + 84A) of the same compound?
Its value is 45.9 fold.

What about the “mean fold increase in resistance” value (Table 9 #17, protease genotype 10V + 46I + 71T + 84A) of the same compound?
Its value is 57.9 fold.

What about the “mean fold increase in resistance” value (Table 9 #18, protease genotype 10I + 46I + 71V + 77I) of the same compound?
Its value is 2.2 fold.

What about the “mean fold increase in resistance” value (Table 9 #19, protease genotype 10I + 46I + 71V + 77I + 84V) of the same compound?
Its value is 2.2 fold.

And the “mean fold increase in resistance” value (Table 9 #20, protease genotype 10I + 46I + 71V + 77I + 84A)?
Its value is 57.9 fold.

And the “mean fold increase in resistance” value (Table 9 #21, protease genotype 10I + 33L/I + 46I + 71V + 77V/I + 84A)?
The value was 31.4 fold.

And the “mean fold increase in resistance” value (Table 10 #1, protease genotype 10I + 36I + 71V)?
Its value is 1.4 fold.

What about the “mean fold increase in resistance” value (Table 10 #2, protease genotype 10I + 36I + 71I + 84V) of the same compound?
Its value is 1.0 fold.

And the “mean fold increase in resistance” value (Table 10 #3, protease genotype 10I + 36I + 71I + 84L)?
Its value is 3.7 fold.

What about the “mean fold increase in resistance” value (Table 11 #1, protease genotype WT) of the same compound?
The value was 0.9 fold.

What about the “mean fold increase in resistance” value (Table 11 #2, protease genotype 84V) of the same compound?
Its value is 0.7 fold.

And the “mean fold increase in resistance” value (Table 11 #3, protease genotype 84C)?
The value was 2.7 fold.

And the “mean fold increase in resistance” value (Table 11 #4, protease genotype 10I)?
The value was 0.7 fold.

What about the “mean fold increase in resistance” value (Table 11 #5, protease genotype 10I + 84V) of the same compound?
Its value is 1.8 fold.

What about the “mean fold increase in resistance” value (Table 11 #6, protease genotype 10I + 84C) of the same compound?
The value was 4.3 fold.

What about the “mean fold increase in resistance” value (Table 11 #7, protease genotype 77I) of the same compound?
The value was 0.4 fold.

What about the “mean fold increase in resistance” value (Table 11 #8, protease genotype 77I + 84V) of the same compound?
The value was 2.5 fold.

And the “mean fold increase in resistance” value (Table 11 #9, protease genotype 77I + 84C)?
Its value is 3.1 fold.

And the “mean fold increase in resistance” value (Table 11 #10, protease genotype 77I + 84C)?
Its value is 3.2 fold.

And the “mean fold increase in resistance” value (Table 11 #11, protease genotype 10I + 24I + 36I + 46I + 71V + 84C)?
Its value is 7.5 fold.

What about the “Fold change in IC50” value (Table 12, V19263, genotype 77I) of the same compound?
The value was 0.4 fold.

And the “Fold change in IC50” value (Table 12, V20160, genotype WT)?
Its value is 0.9 fold.

And the “Fold change in IC50” value (Table 12, V021667, genotype 10I)?
The value was 0.7 fold.

And the “Fold change in IC50” value (Table 12, V030496, genotype 10I + 77I)?
Its value is 0.4 fold.

What about the “Fold change in IC50” value (Table 12, V048869, genotype 10I + 54M + 77I + 90M) of the same compound?
Its value is 7.1 fold.

And the “Fold change in IC50” value (Table 12, V048872, genotype 33F + 54M + 77I + 90M)?
The value was 3.2 fold.

And the “Fold change in IC50” value (Table 12, V048873, genotype 33F + 54M + 77I + 90M)?
Its value is 1.7 fold.

What about the “Fold change in IC50” value (Table 12, V048877, genotype 10I + 33F + 77I + 90M) of the same compound?
Its value is 2.9 fold.

What about the “Fold change in IC50” value (Table 12, V048878, genotype 10I + 33F + 54M + 71V + 77I + 90M) of the same compound?
The value was 5.2 fold.

And the “Fold change in IC50” value (Table 12, V048879, genotype 10I + 33F + 54M + 71V + 77I + 90M)?
Its value is 6.5 fold.

And the “Fold change in IC50” value (Table 12, V048880, genotype 10I + 33F + 77I + 90M)?
Its value is 1.3 fold.

What about the “Fold change in IC50” value (Table 12, V052940, genotype 71V) of the same compound?
Its value is 0.7 fold.

What about the “Fold change in IC50” value (Table 12, V052942, genotype 10I + 71V) of the same compound?
Its value is 0.6 fold.

And the “Fold change in IC50” value (Table 12, V052943, genotype 10I + 90M)?
Its value is 0.5 fold.

What about the “Fold change in IC50” value (Table 12, V052944, genotype 10I + 90M) of the same compound?
Its value is 0.5 fold.

What about the “Fold change in IC50” value (Table 12, V052945, genotype 77I + 90M) of the same compound?
Its value is 0.6 fold.

And the “Fold change in IC50” value (Table 12, V052946, genotype 71V + 90M)?
The value was 0.9 fold.

And the “Fold change in IC50” value (Table 12, V052947, genotype 10I + 77I + 90M)?
The value was 2.9 fold.

And the “Fold change in IC50” value (Table 12, V052948, genotype 10I + 71V + 90M)?
The value was 8.6 fold.

What about the “Fold change in IC50” value (Table 12, V052949, genotype 10I + 71V + 77I + 90M) of the same compound?
Its value is 2.7 fold.

And the “Fold change in IC50” value (Table 12, V052950, genotype 33F)?
Its value is 0.6 fold.

And the “Fold change in IC50” value (Table 12, V052951, genotype 33F + 77I)?
Its value is 0.4 fold.

And the “Fold change in IC50” value (Table 12, V052953, genotype 10I + 33F + 77I)?
Its value is 0.8 fold.

What about the “Fold change in IC50” value (Table 12, V052954, genotype 33F + 77I + 90M) of the same compound?
Its value is 1.7 fold.

What about the “Fold change in IC50” value (Table 12, V052955, genotype 33F + 71V + 90M) of the same compound?
Its value is 5.3 fold.

And the “Fold change in IC50” value (Table 12, V052977, genotype 10I + 33F + 54M)?
The value was 1.8 fold.

What about the “Fold change in IC50” value (Table 12, V052978, genotype 10I + 33F + 54M + 71V + 90M) of the same compound?
Its value is 5.4 fold.

What about the “Fold change in IC50” value (Table 12, V052979, genotype 10I + 54M) of the same compound?
The value was 1.8 fold.

What about the “Fold change in IC50” value (Table 12, V052980, genotype 10I + 54M + 90M) of the same compound?
The value was 1.3 fold.

And the “Fold change in IC50” value (Table 12, V052981, genotype 10I + 54M + 71V + 90M)?
Its value is 3.2 fold.

And the “Fold change in IC50” value (Table 12, V052982, genotype 10I + 54M + 71V + 77I + 90M)?
Its value is 2.4 fold.

What about the “Fold change in IC50” value (Table 12, V053832, genotype 10I + 33F) of the same compound?
The value was 0.4 fold.
